Assay results reported in US7501419B2, “4-Squarylpiperazine derivatives as antiviral agents” (priority 2006, dated 2009).

Tested on: HIV-1
Test: Single-round infectious HIV-1 luciferase reporter virus infection of HeLa CD4 cells
Format: cell-based
Details: Human immunodeficiency virus 1, HeLa, 72 h
Experimental: • Virus production—Human embryonic Kidney cell line, 293T, was propagated in Dulbecco's Modified Eagle Medium (Invitrogen, Carlsbad, Calif.) containing 10% fetal Bovine serum (FBS, Sigma, St. Louis, Mo.). • Virus infection—Human epithelial cell line, HeLa, expressing the HIV-1 receptor CD4 was propagated in Dulbecco's Modified Eagle Medium (Invitrogen, Carlsbad, Calif.) containing 10% fetal Bovine serum (FBS, Sigma, St. Louis , Mo.) and supplemented with 0.2 mg/mL Geneticin (Invitrogen, Carlsbad, Calif.).
Transfections were performed using lipofectAMINE PLUS reagent as described by the manufacturer (Invitrogen, Carlsbad, Calif.).
• 1. […] Compound was added in a 2 μl dimethylsulfoxide solution, so that the final assay concentration would be ≦10 μM. • 3. 100 μl of single-round infectious reporter virus in Dulbecco's Modified Eagle Medium was then added to the plated cells and compound at an approximate multiplicity of infection (MOI) of 0.01, resulting in a final volume of 200 μl per well. • 4. Virally-infected cells were incubated at 37 degrees Celsius, in a CO2 incubator, and harvested 72 h after infection. • 5. Viral infection was monitored by measuring luciferase expression from viral DNA in the infected cells using a luciferase reporter gene assay kit, as described by the manufacturer (Roche Molecular Biochemicals, Indianapolis, Ind.). Infected cell supernatants were removed and 50 μl of lysis buffer was added per well. After 15 minutes, 50 μl of freshly-reconstituted luciferase assay reagent was added per well. Luciferase activity was then quantified by measuring luminescence using a Wallac microbeta scintillation counter. • 6. […] An EC50 provides a method for comparing the antiviral potency of the compounds of this disclosure. The effective concentration for fifty percent inhibition (EC50) was calculated with the Microsoft Excel Xlfit curve fitting software. For each compound, curves were generated from percent inhibition calculated at 10 different concentrations by using a four parameter logistic model (model 205).

Row | Compound | EC50
1 | COc1cnc(Cl)c2[nH]cc(C(=O)C(=O)N3CCN(c4c(-c5ccccc5)c(=O)c4=O)CC3)c12 [Number 31] | 50 to 500 nM
2 | COc1cnc(-n2ccc(C)n2)c2[nH]cc(C(=O)C(=O)N3CCN(c4c(-c5ccccc5)c(=O)c4=O)CC3)c12 [Number 40] | 50 to 500 nM
3 | COc1ncc(OC)c2c(C(=O)C(=O)N3CCN(c4c(-c5ncco5)c(=O)c4=O)CC3)c[nH]c12 [Number 37] | 500 to 5000 nM
4 | COc1ncc(OC)c2c(C(=O)C(=O)N3CCN(c4c(-c5ccccc5)c(=O)c4=O)CC3)c[nH]c12 [Number 29] | 50 to 500 nM
5 | COc1cnc(Br)c2[nH]cc(C(=O)C(=O)N3CCN(c4c(-c5ccccc5)c(=O)c4=O)CC3)c12 [Number 34] | 50 to 500 nM
6 | O=C(C(=O)N1CCN(c2c(N3CCc4ccccc4C3)c(=O)c2=O)CC1)c1c[nH]c2cccc(F)c12 [Number 23] | > 5000 nM
7 | O=C(C(=O)N1CCN(c2c(-c3ccco3)c(=O)c2=O)CC1)c1c[nH]c2cccc(F)c12 [Number 28] | 500 to 5000 nM
8 | COc1cccc(-c2c(N3CCN(C(=O)C(=O)c4c[nH]c5c(OC)ncc(OC)c45)CC3)c(=O)c2=O)c1 [Number 42] | 50 to 500 nM
9 | COc1ncc(OC)c2c(C(=O)C(=O)N3CCN(c4c(-c5cccs5)c(=O)c4=O)CC3)c[nH]c12 [Number 30] | 50 to 500 nM
10 | COc1ncc(OC)c2c(C(=O)C(=O)N3CCN(c4c(-c5ccccc5)c(=O)c4=O)[C@H](C)C3)c[nH]c12 [Number 39] | 50 to 500 nM
11 | COc1cnc(-n2cncn2)c2[nH]cc(C(=O)C(=O)N3CCN(c4c(-c5ccccc5)c(=O)c4=O)CC3)c12 [Number 36] | 50 to 500 nM
12 | COc1ncc(OC)c2c(C(=O)C(=O)N3CCN(c4c(-c5ccccc5)c(=O)c4=O)[C@@H](C)C3)c[nH]c12 [Number 38] | 50 to 500 nM
13 | COc1ncc(OC)c2c(C(=O)C(=O)N3CCN(c4c(-c5ccc(F)cc5)c(=O)c4=O)CC3)c[nH]c12 [Number 41] | 50 to 500 nM
14 | COc1ncc(OC)c2c(C(=O)C(=O)N3CCN(c4c(-c5ccccc5)c(=O)c4=O)C[C@@H]3C)c[nH]c12 [Number 33] | 50 to 500 nM
15 | CN1CCN(c2c(N3CCN(C(=O)C(=O)c4c[nH]c5cccc(F)c45)CC3)c(=O)c2=O)CC1 [Number 24] | > 5000 nM
16 | CCCN(CCC)c1c(N2CCN(C(=O)C(=O)c3c[nH]c4cccc(F)c34)CC2)c(=O)c1=O [Number 25] | > 5000 nM
17 | CCN(Cc1ccccc1)c1c(N2CCN(C(=O)C(=O)c3c[nH]c4cccc(F)c34)CC2)c(=O)c1=O [Number 22] | > 5000 nM
18 | COc1cnc(-c2cnccn2)c2[nH]cc(C(=O)C(=O)N3CCN(c4c(-c5ccccc5)c(=O)c4=O)CC3)c12 [Number 35] | 50 to 500 nM
19 | COc1ncc(OC)c2c(C(=O)C(=O)N3CCN(c4c(-c5ccccc5)c(=O)c4=O)C[C@H]3C)c[nH]c12 [Number 32] | 50 to 500 nM
20 | O=C(C(=O)N1CCN(c2c(-c3cccs3)c(=O)c2=O)CC1)c1c[nH]c2cccc(F)c12 [Number 27] | 50 to 500 nM
21 | COc1ncc(OC)c2c(C(=O)C(=O)N3CCN(c4c(-c5nccs5)c(=O)c4=O)CC3)c[nH]c12 [Number 43] | 500 to 5000 nM
22 | O=C(C(=O)N1CCN(c2c(N3CCC4(CCCC4)CC3)c(=O)c2=O)CC1)c1c[nH]c2cccc(F)c12 [Number 26] | > 5000 nM
23 | O=C(C(=O)N1CCN(c2c(N3CCSCC3)c(=O)c2=O)CC1)c1c[nH]c2cccc(F)c12 [Number 21] | > 5000 nM
